Results reported in US12428406B2 (PMV Pharmaceuticals, Inc., priority 2019, dated 2025).

target: T1, p53 Y220C (Homo sapiens, UniProt P04637, Y220C); test: In vitro DNA binding activity assay (HTRF / TR-FRET): stabilization of p53 Y220C and increase of its DNA binding activity; type: biochemical; details: recombinant His-tagged p53 Y220C DNA binding domain (aa 94-312), biotin-labeled consensus DNA, incubated at 27° C. or 29° C. for 60 min
T1 construct: The recombinant protein was a truncation mutant containing only amino acids 94-312 of p53; made in house; host or cells: E. coli
T1 sequence (P04637 94-312, change not shown): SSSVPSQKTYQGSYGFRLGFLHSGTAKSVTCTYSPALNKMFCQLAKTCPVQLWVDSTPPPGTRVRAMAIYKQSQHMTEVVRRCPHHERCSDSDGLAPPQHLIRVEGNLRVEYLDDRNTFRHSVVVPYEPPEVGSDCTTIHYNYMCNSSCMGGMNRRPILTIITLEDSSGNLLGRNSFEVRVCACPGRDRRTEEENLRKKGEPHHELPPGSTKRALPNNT
Method in brief: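 Test compounds, diluted 3-fold in DMSO from 4.5 mM stocks, were incubated with bacterially expressed His-tagged p53 Y220C at room temperature for 15 min, and after a further step for 20 min. DNA binding was detected by time-resolved FRET between APC and europium labels. SC150 marks the concentration increasing binding by 50%.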

**Q.** With `COC(=O)c1ccc(NCC#Cc2cc3c(N[C@@H]4CCN(CC(N)=O)C[C@@H]4F)cccc3n2CC(F)(F)F)c(OC)c1` [Compound 901A, methyl 4-{[3-(4-{[(3S,4R)-1-(carbamoylmethyl)-3-fluoropiperidin-4-yl]amino}-1-(2,2,2-trifluoroethyl)-1H-indol-2-yl)prop-2-yn-1-yl]amino}-3-methoxybenzoate] as the molecule, how does the “SC150 (concentration of the compound required to increase the DNA binding activity by 50%)” value read?
**A.** The value was “+ (+ = 0 μM ≤ SC150 < 0.05 μM)”.

**Q.** How did the “SC150 (concentration of the compound required to increase the DNA binding activity by 50%)” value turn out when `CCS(=O)(=O)c1ccc(NCC#Cc2cc3c(N[C@H]4CC[C@@H](N5CC6(CCOCC6)C5)CC4)cccc3n2CC(F)(F)F)c(OC)c1` [Compound 315A, 2-(3-{[4-(ethanesulfonyl)-2-methoxyphenyl]amino}prop-1-yn-1-yl)-N-[(1S,4S)-4-{7-oxa-2-azaspiro[3.5]nonan-2-yl}cyclohexyl]-1-(2,2,2-trifluoroethyl)-1H-indol-4-amine] was run?
**A.** The value was “+ (+ = 0 μM ≤ SC150 < 0.05 μM)”.

**Q.** With `COc1cc(C(F)(F)F)ccc1NCC#Cc1cc2c(N[C@H]3CC[C@H](N4CC5(COC5)C4)CC3)cccc2n1CC(F)(F)F` [Compound 277A, 2-(3-{[2-methoxy-4-(trifluoromethyl)phenyl]amino}prop-1-yn-1-yl)-N-[(1R,4R)-4-{2-oxa-6-azaspiro[3.3]heptan-6-yl}cyclohexyl]-1-(2,2,2-trifluoroethyl)-1H-indol-4-amine] as the molecule, how does the “SC150 (concentration of the compound required to increase the DNA binding activity by 50%)” value read?
**A.** Its value is “++ (++ = 0.05 μM ≤ SC150 < 0.1 μM)”.

**Q.** For `CCNC(=O)c1ccc(NCC#Cc2cc3c(N[C@H]4CC[C@@H](N5CC6(COC6)C5)CC4)cccc3n2CC(F)(F)F)c(OC)c1` [Compound 238A, N-ethyl-3-methoxy-4-{[3-(4-{[(1R,4R)-4-{2-oxa-6-azaspiro[3.3]heptan-6-yl}cyclohexyl]amino}-1-(2,2,2-trifluoro-ethyl)-1H-indol-2-yl)prop-2-yn-1-yl]amino} benzamide], which “SC150 (concentration of the compound required to increase the DNA binding activity by 50%)” value is on record?
**A.** Its value is “+ (+ = 0 μM ≤ SC150 < 0.05 μM)”.

**Q.** Which “SC150 (concentration of the compound required to increase the DNA binding activity by 50%)” value does the source give for `CNC(=O)c1ccc(NCC#Cc2cc3c(N[C@H]4CC[C@@H](C#N)CC4)cccc3n2CC(F)(F)F)c(OC)c1` [Compound 35A, 3-methoxy-N-methyl-4-{[3-(4-{[(1S,4S)-4-cyanocyclohexyl]amino}-1-(2,2,2-trifluoroethyl)-1H-indol-2-yl)prop-2-yn-1-yl]amino}benzamide] here?
**A.** The value was “+ (+ = 0 μM ≤ SC150 < 0.05 μM)”.

**Q.** With `COc1cc(S(C)(=O)=O)ccc1NCC#Cc1cc2c(N[C@@H]3CCN(C(C)(C)C)C[C@@H]3F)cccc2n1CC(F)(F)F` [Compound 1068A, N-((3S,4R)-1-(tert-butyl)-3-fluoropiperidin-4-yl)-2-(3-((2-methoxy-4-(methylsulfonyl)phenyl)amino)prop-1-yn-1-yl)-1-(2,2,2-trifluoroethyl)-1H-indol-4-amine] as the molecule, how does the “SC150 (concentration of the compound required to increase the DNA binding activity by 50%)” value read?
**A.** Its value is “+ (+ = 0 μM ≤ SC150 < 0.05 μM)”.

**Q.** `CS(=O)(=O)c1ccc(NCC#Cc2cc3c(N[C@H]4CC[C@H](N5CC6CC(C5)O6)CC4)cccc3n2CC(F)(F)F)c(OCC#N)c1` [Compound 407A, 2-(5-methanesulfonyl-2-{[3-(4-{[(1R,4R)-4-{6-oxa-3-azabicyclo[3.1.1]heptan-3-yl}cyclohexyl]amino}-1-(2,2,2-trifluoroethyl)-1H-indol-2-yl)prop-2-yn-1-yl]amino}phenoxy)acetonitrile] was tested. Which “SC150 (concentration of the compound required to increase the DNA binding activity by 50%)” value did it give?
**A.** Its value is “+ (+ = 0 μM ≤ SC150 < 0.05 μM)”.

**Q.** `CCC(=O)OCC(CN1CCC(Nc2cccc3c2cc(C#CCNc2ccc(C(=O)NC)cc2OC)n3CC(F)(F)F)CC1)OC(=O)CC` (centres unmarked) [Compound 656A, 1-(4-{[2-(3-{[2-methoxy-4-(methylcarbamoyl)phenyl]amino}prop-1-yn-1-yl)-1-(2,2,2-trifluoroethyl)-1H-indol-4-yl]amino}piperidin-1-yl)-3-(propanoyloxy)propan-2-yl propanoate] was tested. Which “SC150 (concentration of the compound required to increase the DNA binding activity by 50%)” value did it give?
**A.** The value was “+ (+ = 0 μM ≤ SC150 < 0.05 μM)”.
